Measured values from patent US20030110524A1, “TRANSGENIC ORGANISMS AND THEIR USES” (priority 1997, published 2003).

Tests used:
[1] = system: lung fibroblast cells derived from CD2/neo^r transgenic rats; assay: Survival of lung fibroblast cells from CD2/neo^r transgenic rats with drugs; format: cell-based, rat; settings: for Survival of lung fibroblast cells (related to number of cells in control cultures without drug): CD2/neo^r rat cells, drugs added at day 2, geneticin 400 μg/ml, 5FC 100 μg/ml
Method: (§1) Fibroblast cultures derived from lung of adult CD2/neo^r, TG/TK/neo^r and control animals were produced and expanded by routine methods (Freshney (1987), Alan R. Liss, New York). Twenty-four hours after plating, geneticin (400 μg/ml) was added to cultures originating from both types of transgenic rats and from control rats, and replaced every three days with fresh medium. When required, cells were subcultured (1:3) to prevent them becoming confluent, again by basic culture methods (Freshney 1987). Cell counts were made manually in 20 fields chosen randomly and the values at each time point, after allowing for changes due to subculturing, were aggregated. […] In the absence of added geneticin, no change in cell survival from either of the transgenic animals was observed.
(§2) The effects of 5-fluorocytosine (5FC) were also determined. 5-fluorocytosine at a concentration of 100 μg/ml had no effect on fibroblast cells derived from control animals or from the TG/TK/neo^r transgenic. In the cells derived from the CD2/neo^r transgenic animal, however, 94% of the originally-plated cells died, or were non-functional (as determined by their failure to exclude trypan blue) after 10 days culture in the presence of 5FC (Table 2).
(§3) Drugs were added at day 2 in culture. Values are related to the number of cells found in control cultures without drug additions at various times after plating, and allowing for dilutions resulting from passaging. Figures are the means of three separate determinations, the standard errors all being less than 15% of the mean.

[2] = system: lung fibroblast cells derived from control rats; assay: Survival of lung fibroblast cells from control rats with drugs; format: cell-based, rat; settings: for Survival of lung fibroblast cells (related to number of cells in control cultures without drug): control rat cells, drugs added at day 2, geneticin 400 μg/ml, 5FC 100 μg/ml
Method: as §1, §2, §3

[3] = system: lung fibroblast cells derived from TG/TK/neo^r transgenic rats; assay: Survival of lung fibroblast cells from TG/TK/neo^r transgenic rats with drugs; format: cell-based, rat; settings: for Survival of lung fibroblast cells (related to number of cells in control cultures without drug): TG/TK/neo^r rat cells, drugs added at day 2, geneticin 400 μg/ml, 5FC 100 μg/ml
Method: as §1, §2, §3

[4] = system: thyroid cells derived from TG/TK/neo^r transgenic rats; assay: Survival of thyroid cells from TG/TK/neo^r transgenic rats with drugs; format: cell-based, rat; settings: for Survival of thyroid cells (related to number of cells in control cultures without drug): TG/TK/neo^r rat cells, drugs added at day 2, geneticin 400 μg/ml, ACG 10 μg/ml
Method: (§4) Thyroid cultures derived from the thyroid gland of adult CD2/neo^r, TG/TK/neo^r and control animals were produced by routine methods (Freshney, 1987). Twenty-four hours after plating, geneticin (400 μg/ml) was added to cultures originating from both types of transgenic and the control rats, and replaced every three days with fresh medium. When required, cells were subcultured (1:2) to prevent their becoming confluent. Cell counts were made manually in 20 fields chosen randomly, and the values at each time point, after allowing for changes due to subculturing, were aggregated (Table 3). […] Ten days later, cell counts were again made of 20 fields chosen at random. […] The results were as expected in view of the specific and non-specific expression of the positive and negative selection markers, in the TG/TK/neo^r and CD2/neo^r transgenics, respectively.
as §3, with “allow” for “allowing”

thyroid follicle cells = assay: Ablation of thyroid follicle cells in vivo; set-up: species or system rat
[5] = system: thyroid cells derived from control rats; assay: Survival of thyroid cells from control rats with drugs; format: cell-based, rat; settings: for Survival of thyroid cells (related to number of cells in control cultures without drug): control rat cells, drugs added at day 2, geneticin 400 μg/ml, ACG 10 μg/ml
Method: as §4
as §3, with “allow” for “allowing”

[6] = system: thyroid cells derived from CD2/neo^r transgenic rats; assay: Survival of thyroid cells from CD2/neo^r transgenic rats with drugs; format: cell-based; settings: CD2/neo^r rat cells, drugs added at day 2, geneticin 400 μg/ml, ACG 10 μg/ml
Method: as §4
as §3, with “allow” for “allowing”

[7] = transgenic rats treated with ACG for 12 days

## Nc1nc(=O)[nH]cc1F [5FC, 5-fluorocytosine]
[1]; day 1 in culture
  Survival of lung fibroblast cells (related to number of cells in control cultures without drug): 94
[1]; day 3 in culture
  Survival of lung fibroblast cells (related to number of cells in control cultures without drug): 5
[1]; day 5 in culture
  Survival of lung fibroblast cells (related to number of cells in control cultures without drug): 3
[1]; day 7 in culture
  Survival of lung fibroblast cells (related to number of cells in control cultures without drug): 3
[1]; day 9 in culture
  Survival of lung fibroblast cells (related to number of cells in control cultures without drug): 4
[1]; day 11 in culture
  Survival of lung fibroblast cells (related to number of cells in control cultures without drug): 4
[1]; CD2/neo^r transgenic, 100 μg/ml, after 10 days culture in the presence of 5FC
  Originally-plated cells died, or were non-functional (failure to exclude trypan blue): 94%
[2]; control animals, 100 μg/ml
  Effect of 5-fluorocytosine on fibroblast cells: had no effect
[2]; day 1 in culture
  Survival of lung fibroblast cells (related to number of cells in control cultures without drug): 101
[2]; day 3 in culture
  Survival of lung fibroblast cells (related to number of cells in control cultures without drug): 105
[2]; day 5 in culture
  Survival of lung fibroblast cells (related to number of cells in control cultures without drug): 98
[2]; day 7 in culture
  Survival of lung fibroblast cells (related to number of cells in control cultures without drug): 97
[2]; day 9 in culture
  Survival of lung fibroblast cells (related to number of cells in control cultures without drug): 93
[2]; day 11 in culture
  Survival of lung fibroblast cells (related to number of cells in control cultures without drug): 96
[2]; control rats
  Difference in cell counts between cultures in the absence and presence of 5FC: no significant difference in cell counts
[3]; day 1 in culture
  Survival of lung fibroblast cells (related to number of cells in control cultures without drug): 98
[3]; day 3 in culture
  Survival of lung fibroblast cells (related to number of cells in control cultures without drug): 96
[3]; day 5 in culture
  Survival of lung fibroblast cells (related to number of cells in control cultures without drug): 95
[3]; day 7 in culture
  Survival of lung fibroblast cells (related to number of cells in control cultures without drug): 92
[3]; day 9 in culture
  Survival of lung fibroblast cells (related to number of cells in control cultures without drug): 92
[3]; day 11 in culture
  Survival of lung fibroblast cells (related to number of cells in control cultures without drug): 93
[3]; TG/TK/neo^r transgenic, 100 μg/ml
  Effect of 5-fluorocytosine on fibroblast cells: had no effect

## Nc1nc2c(ncn2COCCO)c(=O)[nH]1 [ACG, acycloguanosine]
[4]; day 1 in culture
  Survival of thyroid cells (related to number of cells in control cultures without drug): 98
[4]; day 3 in culture
  Survival of thyroid cells (related to number of cells in control cultures without drug): 38
[4]; day 5 in culture
  Survival of thyroid cells (related to number of cells in control cultures without drug): 12
[4]; day 7 in culture
  Survival of thyroid cells (related to number of cells in control cultures without drug): 10
[4]; day 9 in culture
  Survival of thyroid cells (related to number of cells in control cultures without drug): 8
[4]; day 11 in culture
  Survival of thyroid cells (related to number of cells in control cultures without drug): 7
[4]; TG/TK/neo^r transgenic, 10 μg/ml ACG
  Survival of thyroid cells under ACG treatment: did not survive ACG treatment
Thyroid follicle cells; lower amounts of ACG per day
  Effect on T3 and T4: partial loss of T3 and T4
Thyroid follicle cells; transgenic adult female rats, 50 mg ACG per day i.p. for 5 days, seven days after the final injection, N=6
  Serum level of T4: less than 2.5 nM
Thyroid follicle cells; [7]
  Histochemical analysis of thyroid glands: almost complete loss of follicular cells
  Thyroid gland weight, of the original weights: 7%
[5]; control animals, 10 μg/ml ACG
  Survival of thyroid cells under ACG treatment: the cells derived from the control animals did
[5]; day 1 in culture
  Survival of thyroid cells (related to number of cells in control cultures without drug): 94
[5]; day 3 in culture
  Survival of thyroid cells (related to number of cells in control cultures without drug): 97
[5]; day 5 in culture
  Survival of thyroid cells (related to number of cells in control cultures without drug): 98
[5]; day 7 in culture
  Survival of thyroid cells (related to number of cells in control cultures without drug): 91
[5]; day 9 in culture
  Survival of thyroid cells (related to number of cells in control cultures without drug): 92
[5]; day 11 in culture
  Survival of thyroid cells (related to number of cells in control cultures without drug): 102
[6]; day 1 in culture
  Survival of thyroid cells (related to number of cells in control cultures without drug): 98
[6]; day 3 in culture
  Survival of thyroid cells (related to number of cells in control cultures without drug): 90
[6]; day 5 in culture
  Survival of thyroid cells (related to number of cells in control cultures without drug): 93
[6]; day 7 in culture
  Survival of thyroid cells (related to number of cells in control cultures without drug): 93
[6]; day 9 in culture
  Survival of thyroid cells (related to number of cells in control cultures without drug): 97
[6]; day 11 in culture
  Survival of thyroid cells (related to number of cells in control cultures without drug): 88
